This is an account of results in US20260199297A1, “FERROPTOSIS INDUCERS TO TREAT CANCER” (The University of Toledo, priority 2022, published 2026).

Like-named read-outs stand apart in the source and are kept apart here.

Data set [1] relates to NCI-H522 GFP-SLC7A11 #8 cells. Nature of the data set: Cytotoxicity (methylene blue cell viability), NCI-H522 clone overexpressing GFP-SLC7A11. The format is cell-based, human. The method, then: (§1) Having synthesized the CETZOLE analogs, their cytotoxic activity was evaluated. […] NCI-H522 RV-GFP is the corresponding control with RV-GFP tag, but without SLC7A11 overexpression. […] The cytotoxicity screening was conducted as described previously.
(§2) Cell lines were cultured in a humidified atmosphere containing 10% CO2 in Dulbecco's modified Eagle's medium (Mediatech, Inc) supplemented with 10% fetal bovine serum (Atlanta Biologicals). Cell types used MEFs, HT1080 (human fibrosarcoma cells), NARF2 (osteosarcoma), WI-38 (human embryonic lung fibroblast), MDA MB 231 (breast cancer), HCT-116 (human colon), and NCI-H522 (Non-Small Cell Lung Cancer) cell lines. To determine viability throughout these examples, 5,000 cells were plated per well of a 96-well plate and drugs were added 1 day later. Cells were stained 1 to 3 days later with a saturated solution of methylene blue in 50% ethanol. Plates were rinsed and retained dye was quantified by spectrophotometry. Absorbance was normalized to DMSO and given as 1 or 100% for cell viability. Results are representative of at least two independent experiments. Statistical significance was assessed using the Student's t test. All commercially available chemicals were obtained from Cayman Chemicals unless otherwise noted.

In data set [2] the test system is NARF2 cells. The experiment in a line: Cytotoxicity (methylene blue cell viability), NARF2. The format is cell-based, human. The following applies: read-out: Half maximal inhibitory concentration (IC50), NARF2. The method, then:
as §1, §2

In data set [3] the test system is NCI-H522, NCI-H522 GFP-SLC7A11 #8, NCI-H522 RV-GFP, HT-1080, NARF2 and MDA-MB 231 cell lines. The experiment in a line: Cytotoxicity screening across the tested cell lines. The format is cell-based. The following applies: summary over all tested cell lines; read-out: IC50 values against the tested cell lines. As to the method:
as §1, §2

Data set [4] deals with HT-1080 cells. Nature of the data set: Cytotoxicity (methylene blue cell viability), HT-1080. It is filed as cell-based, human. The method, then:
as §1, §2

The subject of data set [5] is NCI-H522 cells. The experiment in a line: Cytotoxicity (methylene blue cell viability), NCI-H522. It is filed as cell-based, human. As to the method:
as §1, §2

In data set [6] the test system is NCI-H522 RV-GFP cells. Nature of the data set: Cytotoxicity (methylene blue cell viability), NCI-H522 RV-GFP control clone. The note with it: Table 1, control clone with RV-GFP tag, read-out: Half maximal inhibitory concentration (IC50), NCI-H522 Rv-GFP. The format is cell-based, human. As to the method: as §1, §2
The test system of data set [7] is MDA-MB-231 cells. The experiment in a line: Cytotoxicity (methylene blue cell viability), MDA-MB-231. The format is cell-based. The method, then: as §1, §2
Data set [8] deals with MEFs (Mouse Embryonic Fibroblasts). The experiment in a line: Cytotoxicity on normal cell line MEFs. The following applies: read-out: Half maximal inhibitory concentration (IC50), Normal Cell Line Mefs. It is filed as cell-based. As to the method: (§3) To determine cytotoxicity at a therapeutically more relevant concentration, cells were treated at a single concentration of […] (FIG. 12).
as §2

In data set [9] the test system is WI38 cells. Nature of the data set: Cytotoxicity on normal cell line WI38. The format is cell-based, human. As to the method:
as §3, §2

For data set [10], the system named is protein bands between 25 kD to 38 kD. Nature of the data set: Competitive binding assay against probe PPd (in-gel fluorescence). The following applies: for competition of PPd-labelled protein bands by known ferroptosis inducers: 20 μM concentration, bands 25 kD to 38 kD. Further details: competition of PPd-labelled protein bands, dose-dependent: dose or concentration left out as unconfirmed.

The test system of data set [11] is NCI-H522 cells. The experiment in a line: Flow cytometry BODIPY-C11 lipid ROS measurement. It is filed as cell-based, human. The method, then: The total cell counts are represented by the area under the graph.
NCI-H522 cells were seeded at 1.5×10^5 cells per 9-cm plate. The next media was replaced with fresh media before treated with drugs along with BODIPY581/591-C11 dye (0.5 μM) (Thermo Fisher). […], and resuspended in 2% FBS containing 1×PBS. Cells were analyzed in FITC channel using a BD LSR Fortessa FAC Scanner. Twenty thousand events per condition were analyzed from three independent samples. The experiments were performed twice, each time with triplicate samples (n=6). Collected data were processed with FlowJo v10 software. Lipid ROS measurement in TR9-7 or NARF2 cells was performed similarly at the indicated conditions as mentioned in the respective figure legends. Where appropriate, dead cells were excluded by gating. When gates were applied, they were identical across samples within an experiment.
For orientation: In flow cytometry, cells or beads pass a laser one at a time.

Data set [12] relates to NCI-H522 and HT-1080 cancer cell lines, WI38 and MEFs normal cell lines. The experiment in a line: Selective cytotoxicity assay at a single concentration. It is filed as cell-based. Also on record: dose or concentration left out as unconfirmed. The following applies: NCI-H522, HT-1080, WI38, MEFs. The method, then:
Overall, WI38 cells were the most tolerant to the treatment, whereas MEF cells were partially tolerant and relatively less sensitive than both NCI-H522 and HT-1080 cells. To determine cytotoxicity at a therapeutically more relevant concentration, cells were treated at a single concentration of […] (FIG. 12).
as §2, with “noted. Compound CETZOLE 1 and the analogs were synthesized as highlighted.” for “noted.”

In data set [13] the test system is NCI-H522 cells. The format is cell-based. The following applies: human, 3 days.
Description: FIGS. 10A-10C: Results of live cell imaging.
FIG. 16: Evaluation of ferroptosis-inducing character of CETZOLE probes. A three-day ferroptosis rescue assay of NCI-H522 cells treated with DMSO, 1, RSL3, and CETZOLE analogs, and liproxstatin-1 co-treatment, showing significant ferroptosis inducing probes.
The live cell montage images in FIG. 10A show notable ferroptosis-related morphological changes, such as membrane breakage and floating cell debris in the medium. The NCI-H522 cell viability improved overall when cells were co-treated with the radical scavenger liproxstatin-1 (FIG. 10C). […] To confirm this, flow-cytometry was performed to quantify lipid peroxidation using redox-active BODIPY-C11 (FIGS. 11A-11E).
Overall, CETZOLE probes do induce radical-mediated cell death and are therefore indeed ferroptotic agents.
as §2, with “noted. Compound CETZOLE 1 and the analogs were synthesized as highlighted.” for “noted.”

Setting [14] is: Homo sapiens, Table 1, NCI-H522 clone overexpressing GFP-tagged SLC7A11, read-out: Half maximal inhibitory concentration (IC50), NCI-H522 GFP-SCL7A11 #8.
The mark [15] stands for this setting: Homo sapiens, Table 1, NARF2 osteosarcoma cells.
[16] abbreviates: Homo sapiens, Table 1, HT-1080 fibrosarcoma cell line, read-out: Half maximal inhibitory concentration (IC50), HT-1080.
The mark [17] stands for this setting: Homo sapiens, Table 1, NCI-H522 cancer cell line, read-out: Half maximal inhibitory concentration (IC50), NCI-H522.
The mark [18] stands for this setting: Homo sapiens, Table 1, MDA-MB-231 breast cancer cell line, read-out: Half maximal inhibitory concentration (IC50), MDA-MB-231.

On to `C#Cc1nc(C2=C(C)C(=O)/C(=N/O)C2)cs1` [compound 14, (E)-3-(2-Ethynylthiazol-4-yl)-5-(hydroxyimino)-2-methylcyclopent-2-en-1-one], for which the IC50 was > 20 µM in data set [1] (setting [14]); > 20 µM in data set [2] (setting [15]); > 20 µM in data set [3]; 5.29 ± 2.6 µM in data set [4] (setting [16]); > 20 µM in data set [5] (setting [17]); > 20 µM in data set [6] (Homo sapiens, NCI-H522). For the same compound, the IC50 in data set [7] (setting [18]) was 8.05 ± 0.63 µM.

Turning to `C#Cc1nc(C2=C(C)C(OC(=O)CCCCCCC)/C(=N/OC(=O)CCCCCCC)C2)cs1` (centres unmarked) [compound 20e, (E)-3-(2-Ethynylthiazol-4-yl)-2-methyl-5-((octanoyloxy)imino)cyclopent-2-en-1-yl octanoate], the IC50 in [1] (setting [14]) was > 20 µM; in data set [2] (setting [15]), > 20 µM; in data set [3], > 20 µM; in [4] (setting [16]) it was > 20 µM; in data set [5] (setting [17]), > 20 µM; in data set [6] (Homo sapiens, NCI-H522) it was > 20 µM. Besides, the IC50 in data set [7] (setting [18]) is 19.1 ± 2.8 µM.

Consider `C#Cc1nc(C2=C(C)C(O)CC2)cs1` (racemic) [CETZOLE 1, 3-(2-Ethynylthiazol-4-yl)-2-methylcyclopent-2-en-1-ol, reference compound], for which the IC50 in [8] (Mus musculus, Fibroblast) was 2.41 ± 0.98 µM; in data set [1] (Homo sapiens, NCI-H522, read-out: Half maximal inhibitory concentration (IC50), NCI-H522 GFP-SCL7A11 #8) it was 10.3 ± 3.6 µM; in data set [2] (Homo sapiens) it was 14.9 ± 1.3 µM; in data set [9] (Homo sapiens, WI-38, read-out: Half maximal inhibitory concentration (IC50), Normal Cell Line WI38) it was 2.51 ± 0.04 µM; in data set [4] (Homo sapiens, HT-1080, read-out: Half maximal inhibitory concentration (IC50), Cancer Cell Line HT1080) it was 3.07 ± 1.3 µM; in data set [4] (Homo sapiens, HT-1080, read-out: Half maximal inhibitory concentration (IC50), HT-1080), 3.07 ± 1.3 µM. Moreover, the IC50 in [4] (Homo sapiens, HT-1080, read-out: IC50, HT-1080) stood at 0.96 ± 0.11 µM; in data set [5] (Homo sapiens, NCI-H522, read-out: Half maximal inhibitory concentration (IC50), Cancer Cell Line NCI-H522), 2.5 ± 0.32 µM; in data set [5] (Homo sapiens, NCI-H522, read-out: Half maximal inhibitory concentration (IC50), NCI-H522), 2.56 ± 0.93 µM; in data set [5] (Homo sapiens, NCI-H522, read-out: IC50, NCI-H522), 2.5 ± 0.32 µM; in data set [7] (Homo sapiens, MDA-MB-231, read-out: Half maximal inhibitory concentration (IC50), MDA-MB-231) it was 6.28 ± 0.73 µM; in data set [7] (Homo sapiens, MDA-MB-231, read-out: IC50, MDA-MB-231), 3.2 ± 0.2 µM. Moreover, the “competition of PPd-labelled protein bands by known ferroptosis inducers” value in data set [10] is recorded as “compete out the same protein bands”. Besides, the “competition of PPd-labelled protein bands, dose-dependent” value in data set [10] (three bands 25 kD to 38 kD) is “completely competed out”. For the same compound, the “speed of cell death (area under graph)” value in data set [11] (NCI-H522) is given as “induced slower cell death”. Also, the “lipid peroxidation compared to DMSO” value in data set [11] (NCI-H522, BODIPY-C11, 3 hours) is on record as “induced lipid peroxidation”.

As to `COC(=O)c1ccc([C@@H]2c3[nH]c4ccccc4c3C[C@@H](C(=O)OC)N2C(=O)CCl)cc1` [RSL3, reference compound], the IC50 is 0.04 ± 0.02 µM in data set [8] (Table 2, Mouse Embryonic Fibroblasts); 2.84 ± 0.9 µM in data set [1] (Table 1, NCI-H522 clone overexpressing GFP-tagged SLC7A11, read-out: Half maximal inhibitory concentration (IC50), NCI-H522 GFP-SCL7A11 #8); 2.46 ± 0.76 µM in data set [2] (Table 1, NARF2 osteosarcoma cells); 0.05 ± 0.01 µM in [9] (Table 2, lung tissue fibroblast, read-out: Half maximal inhibitory concentration (IC50), Normal Cell Line WI38); 0.14 to 2.84 µM in data set [3]; 0.14 ± 0.08 µM in data set [4] (Table 1, HT-1080 fibrosarcoma cell line, read-out: Half maximal inhibitory concentration (IC50), HT-1080). Further, the IC50 in data set [4] (Table 2, read-out: Half maximal inhibitory concentration (IC50), Cancer Cell Line HT1080) amounted to 0.14 ± 0.1 µM; in data set [5] (Table 1, NCI-H522 cancer cell line, read-out: Half maximal inhibitory concentration (IC50), NCI-H522), 1.1 ± 0.89 µM; in data set [5] (Table 2, read-out: Half maximal inhibitory concentration (IC50), Cancer Cell Line NCI-H522), 1.1 ± 0.89 µM; in [6] it was 0.31 ± 0.04 µM; in data set [7] (Table 1, MDA-MB-231 breast cancer cell line, read-out: Half maximal inhibitory concentration (IC50), MDA-MB-231), 0.22 ± 0.02 µM. Also, the “cell death at a single concentration” value in data set [12] is on record as “killed all cell lines indiscriminately”. Further, the “competition of PPd-labelled protein bands by known ferroptosis inducers” value in [10] is reported as “compete out the same protein bands”.

As to `C#CCCC(=O)Nc1ccc(C(=O)c2ccc(NC(=O)CO/N=C3\CC(c4csc(C#C)n4)=C(C)C3O)cc2)cc1` (centres unmarked) [PPe, (E)-N-(4-(4-(2-(((4-(2-Ethynylthiazol-4-yl)-2-hydroxy-3-methylcyclopent-3-en-1-ylidene)amino)oxy)acetamido)benzoyl)phenyl)pent-4-ynamide], the “cell viability on liproxstatin-1 co-treatment (rescue)” value in [13] worked out at 45%. In addition, the IC50 in data set [4] (Homo sapiens, HT-1080, Table 3, probes and negative controls, read-out: IC50, HT-1080) turned out to be 1.2 ± 0.01 µM; in [5] (Homo sapiens, NCI-H522, Table 3, probes and negative controls, read-out: IC50, NCI-H522), 2.6 ± 0.11 µM; in data set [7] (Homo sapiens, MDA-MB-231, Table 3, probes and negative controls, read-out: IC50, MDA-MB-231), 1.33 ± 0.02 µM.
